Assay results reported in patent publication US7820624B2, “Peptide ligands” (ICH Productions Limited, priority 2003, dated 2010).
“Also recorded” adds a separate entry of the source.

What was measured:
[1] = tested on: human monocyte-derived immature dendritic cells; assay: Whole cell flow cytometry (FACS) of phage clone binding; conditions: day 4 cells, several donors; versus phage clone with no insert
Experimental: 5×10^4 Dendritic cells and 2×10^11 of an individual purified phage clone were each blocked at 4° C. for 30 mins in 1 ml MBSA (2% Marvel, 5% BSA in PBS), with mixing on a turntable. The dendritic cells were spun down at 2000 rpm, a gentle centrifugation to pellet cells without lysing them, for 5 min at 4° C., and the pellet resuspended in the blocked phage solution. The mixture was held on ice for 30 min to allow the phage to bind, before spinning down the cells, removing the supernatant and washing the cells with 1 ml 1% BSA, 0.05% Tween20-PBS. The cells were spun again, the supernatant removed, and the cells fixed in 1 ml 1% paraformaldehyde for 30 min on ice. […] The cells were incubated with the antibody on ice for 30 min before spinning down, washing twice in 0.05% Tween20, 1% BSA PBS, resuspending in […] and measuring the percentage cells positive for FITC by FACS analysis.
Alternatively, 5×10^4 dendritic cells were mixed with 2×10^11 of individual phage clones as described for panning of the phage library. The mixture of phage and DC suspensions was kept on ice for 30 min before cells were centrifuged to remove the supernatant and washed with 1 ml 1% BSA, 0.05% Tween 20-PBS. The cells were again pelleted by centrifugation, then fixed for flow cytometry analysis by resuspending in 1 ml of 1% paraformaldehyde for 30 min on ice. […] The cells were incubated with the antibody on ice for 30 min then pelleted by centrifugation, washed twice in 0.05% Tween 20, 1% BSA PBS and resuspended in 200 μl PBS. The percentage of FITC-positive cells was determined by flow cytometry using a Epics XL flow cytometer (Beckman Coulter, High Wycombe, UK.).

[2] = tested on: human monocyte-derived immature dendritic cells; assay: LID (lipid-peptide-DNA) transfection of immature dendritic cells, EGFP by FACS and 7AAD cell death; type: cell-based; conditions: for Transfection efficiency, % positive cells: day 4 cells; for Transfection efficiency (percentage cells positive for EGFP) relative to peptide 6: day 6 cells, LID vector
Experimental: Lipopolyplex (LID) transfection complexes comprising lipid (L), peptide (in the form of a peptide derivative as described above) (I) and DNA (D) were prepared. The lipid component was Lipofectin or Lipofectamine 2000 (Invitrogen Ltd, Paisley, UK), the peptide component was a synthesized peptide A to F, 6 or 6J derivative, as described in Table 7 above, and the DNA was the plasmid pEGFP-N1 (Clontech, BD Biosciences, Palo Alto, Calif.)
In the transfection complex, peptide component to DNA charge ratios (+/−) were used at 1.5:1, 3:1 and 7:1. The lipid
component (Lipofectin or Lipofectamine 2000) was maintained at a constant proportion, by weight, relative to DNA of 0.75:1. Prior to making transfection complexes, in method A the lipid component was diluted to a concentration of 15 μg per ml, the peptide was prepared at 0.1 mg/ml and the DNA (plasmid pEGFP-N1, BD Biosciences, Cowley, UK, prepared using EndoFree plasmid kit, Qiagen Ltd, Crawley, UK) was at 10 μg per ml. All dilutions were performed with OptiMEM reduced serum tissue culture medium (Life Technologies Ltd, Paisley, UK). In method B prior to making transfection complexes the lipid component was diluted to a concentration of 30 μg per ml, the peptide was prepared at 0.1 mg/ml and the DNA (plasmid pEGFP-N1, BD Biosciences, Cowley, UK, prepared using EndoFree plasmid kit, Qiagen Ltd, Crawley, UK) was at […]. All dilutions were performed in serum-free RPMI.
Transfection complexes were made by mixing the components in the order 1) lipid (50 μl) then 2) peptide (70 μl) and finally 3) DNA (50 μl), then diluting with OptiMEM or serum free RPMI, as appropriate, to a concentration relative to the DNA component of 2 μg DNA per […] (OptiMEM) or 500 μl (RPMI).
Immature day 6 dendritic cells, obtained as described in Example 1(v) above, were plated into a 48 well plate at 5×10^4 cells per well in complete media and allowed to settle for 3 hours at 37° C. 300 μl or 500 μl (as appropriate) of the transfection complex obtained as described above was added to each well. The transfection complex was applied to cells within 5 minutes of preparation. Transfection incubations were performed at 37° C. for 4 hours, after which the medium was replaced with complete medium with cytokines for 24 hours. Cells were harvested by scraping, spun down and resuspended in 300 μl PBS for FACS analysis to determine the percentage of cells positive for the reporter gene EGFP (Enhanced Green Fluorescent Protein). Each transfection was performed in triplicate wells.
For transfection of monocytes, peripheral blood monocytes were prepared using Lymphoprep centrifugation and CD14 bead selection as described in the method for preparation of monocyte derived dendritic cells in Example 1(v) above. These cells were then transfected as described as described for dendritic cells except that transfection of the monocytes (and also of day 3 or day 4 immature dendritic cells) was carried out in solution.

HAEo- cells = assay: LID transfection, luciferase reporter assay, HAEo-; type: cell-based, human; conditions: LID with lipofectin
Experimental: Transfection complexes comprising lipid, peptide and DNA were prepared. The lipid component was lipofectin (Invitrogen Ltd, Paisley, UK), the peptide component was a peptide A to F, 6 or 6J derivative, as described above, and the DNA was the plasmid pCILuc (Promega UK Ltd, Southampton). In the transfection complex, peptide to DNA charge ratios (+/−) were used at 3:1, 5:1 and 7:1. The lipid component was maintained at a constant proportion, by weight, relative to DNA of 0.75:1. Prior to making transfection complexes the lipid component was diluted to a concentration of 15 μg or 30 μg per ml, the peptide was prepared at 0.1 mg/ml and the DNA was at 40 μg per ml. All dilutions were performed with OptiMEM reduced serum tissue culture medium (Life Technologies). Transfection complexes were made by mixing of components in the order 1) lipid then 2) peptide and finally 3) DNA, then diluted with OptiMEM to a concentration relative to the DNA component of 0.25 μg DNA per […]
For transfection of these types of cell i.e. HMEC, HAEo-, N2a and HepG2, 1×10^4 cells were seeded overnight in 96 well plate. 200 μl of the suspension of the transfection complex prepared according to (b) above was added to each well. The suspension was applied to cells within 5 minutes of preparation. […]

[3] = lipofectin, lipid:DNA 0.75:1, peptide:DNA 7:1 (FIG. 5a)

APSNSTA (Synthetic peptide binding to dendritic cells)
Percentage of cells positive for bound phage (FITC) by FACS [1]: binding to a higher percentage of cells than a phage clone bearing no insert; also recorded: bind to dendritic cells in highest amounts; also recorded: binding to dendritic cells in highest amounts
Transfection efficiency, % positive cells [2, 3]: 11%
Transfection efficiency (percentage cells positive for EGFP) relative to peptide 6 [2]: equal to those of peptide 6
Transfection efficiency (luciferase activity per mg protein) relative to peptide 6 (HAEo- cells): one and a half times that using peptide 6

SHVKLNS (Synthetic peptide binding to dendritic cells)
Percentage of cells positive for bound phage (FITC) by FACS [1]: binding to a higher percentage of cells than a phage clone bearing no insert; also recorded: bind to dendritic cells in highest amounts; also recorded: binding to dendritic cells in highest amounts
Transfection efficiency, % positive cells [2, 3]: 17%
Transfection efficiency, % positive cells ([2]; no lipid): less than 1%
Transfection efficiency (percentage cells positive for EGFP) relative to peptide 6 [2]: approximately one and a half times that of the positive control, peptide 6
Transfection efficiency (luciferase activity per mg protein) relative to peptide 6 (HAEo- cells): approximately double that seen with peptide 6
